Reference: US11001572B2, “Pyrimidine derivative, method for preparing same and use thereof in medicine” (Zhejiang Hisun Pharmaceutical Co., Ltd., priority 2016, dated 2021)

What was measured:
[1] = Body weight and weight loss rate of Huh7 tumor-bearing mice during administration; type: in vivo, BALB/c nude mice; details: 25 mg/kg (IP, bid), 50 mg/kg (IP, bid) and 300 mg/kg (PO, bid); within 22 days
Procedure: (§1) Each group of animals was administrated (intraperitoneal injection (ip) or oral administration (po)) a test substance twice a day (bid) at a fix time per day according to the body weight of the animals. The first dose was administered on the day of grouping ([…]), and continued for 22 days, the body weight of the animals was recorded daily.
The calculation formula for the weight loss rate of animals is (see FIG. 3 for the results): Weight loss rate of animals=100%×(BWinitial−BWt)/BWinitial
wherein, BWt represents the body weight of the animal at each measurement during administration; BWinitial represents the body weight of the animal at the time of grouping administration.

[2] = tested on: Huh7 tumor-bearing BALB/c nude mice xenografts; test: Growth inhibition of Huh7 xenografts in BALB/c nude mice; type: in vivo; details: 25 mg/kg IP, bid
Procedure: On day 0, Huh7 cells were cultured in DMEM medium containing 10% of fetal bovine serum, 100 U of penicillin, and 100 μg/mL of streptomycin. And cultured in an incubator of 37° C., 5% CO2.
Each mouse was inoculated subcutaneously in the right axilla with 150 μL of cell suspension (5.0×10^6 cells/mouse) under sterile conditions. On day 12 after inoculation, when the tumor grew to a volume of 200-300 mm^3, mice with similar tumor volume and good shape were selected (the shape was as single spherical as possible, no irregular shape or multiple tumors gathered together) and divided into 5 groups, each group had 9 mice.
as §1
The formation of tumor in the inoculated part of each group of animals was observed. The long diameter (Y) and short diameter (X) of the tumor nodules were measured twice a week using vernier calipers and calculated according to the following formula: Volume of tumor nodules(V):V=(X^2Y)/2.
Evaluation index of antitumor activity: tumor growth inhibition rate TGI (%), relative tumor proliferation rate T/C (%).
The relative tumor volume (RTV) is calculated as: RTV=100×TVt/TVinitial
The calculation formula for the relative tumor proliferation rate (% T/C) is: % T/C=100%×(RTVT/RTVC)

SMILES | body weight change [1] | Tumor growth inhibition rate (TGI %) ([2]; Day 16 after inoculation) [%] | Tumor growth inhibition rate (TGI %) ([2]; Day 20 after inoculation) [%] | Tumor growth inhibition rate (TGI %) ([2]; Day 23 after inoculation) [%] | Tumor growth inhibition rate (TGI %) ([2]; Day 27 after inoculation) [%] | Tumor growth inhibition rate (TGI %) ([2]; Day 30 after inoculation) [%] | Tumor growth inhibition rate (TGI %) ([2]; Day 34 after inoculation) [%] | Tumor weight inhibition rate (%) ([2]; end of the experiment)
C=CC(=O)Nc1cc(N2CCN(CC)C3(CC3)C2)ccc1Nc1cc(N(C)C(=O)Nc2c(Cl)c(OC)cc(OC)c2Cl)ncn1 [Example 5, N-(2-((6-(3-(2,6-Dichloro-3,5-dimethoxyphenyl)-1-methylureido)pyrimidin-4-yl)amino)-5-(4-ethyl-4,7-diazaspiro[2.5]octan-7-yl)phenyl)acrylamide] | no significant body weight change |  |  |  |  |  |  | 
C=CC(=O)Nc1cc(N2CCN(CC)CC2)ccc1Nc1cc(N(C)C(=O)Nc2c(Cl)c(OC)cc(OC)c2Cl)ncn1 [Example 108 of WO2015057938] |  | 34 | 21 | 21 | 29 | 24 | 16 | 2.2
